Measured values as given in the NIST ThermoML archive (doi:10.1016/j.jct.2012.08.003).

What was measured:
[1] = Molar enthalpy of transition or fusion; settings: Crystal
[2] = for molar entropy: 101.33 kPa
[3] = molar heat capacity at constant pressure; settings: 101.33 kPa

[Cs+].[F-] [cesium fluoride (CsF)]
[1]
Settings | Molar enthalpy of transition or fusion [kcal/mol]
DSC | 5.28
enthalpy increment functions | 5.11

Settings | molar entropy, [2] [J/K/mol] | molar heat capacity at constant pressure, [3] [J/K/mol]
5 K, Crystal, Vacuum adiabatic calorimetry | 0.08 | 0.16
10 K, Crystal, Vacuum adiabatic calorimetry | 0.49 | 1.3
15 K, Crystal, Vacuum adiabatic calorimetry | 1.54 | 4.39
20 K, Crystal, Vacuum adiabatic calorimetry | 3.34 | 8.57
25 K, Crystal, Vacuum adiabatic calorimetry | 5.65 | 12.33
30 K, Crystal, Vacuum adiabatic calorimetry | 8.2 | 15.77
35 K, Crystal, Vacuum adiabatic calorimetry | 10.86 | 18.9
40 K, Crystal, Vacuum adiabatic calorimetry | 13.57 | 21.75
45 K, Crystal, Vacuum adiabatic calorimetry | 16.28 | 24.36
50 K, Crystal, Vacuum adiabatic calorimetry | 18.97 | 26.72
60 K, Crystal, Vacuum adiabatic calorimetry | 24.21 | 30.78
70 K, Crystal, Vacuum adiabatic calorimetry | 29.21 | 34.08
80 K, Crystal, Vacuum adiabatic calorimetry | 33.94 | 36.74
90 K, Crystal, Vacuum adiabatic calorimetry | 38.4 | 38.87
100 K, Crystal, Vacuum adiabatic calorimetry | 42.59 | 40.59
110 K, Crystal, Vacuum adiabatic calorimetry | 46.53 | 42.2
120 K, Crystal, Vacuum adiabatic calorimetry | 50.27 | 43.53
130 K, Crystal, Vacuum adiabatic calorimetry | 53.8 | 44.7
140 K, Crystal, Vacuum adiabatic calorimetry | 57.15 | 45.59
150 K, Crystal, Vacuum adiabatic calorimetry | 60.32 | 46.3
160 K, Crystal, Vacuum adiabatic calorimetry | 63.33 | 46.86
170 K, Crystal, Vacuum adiabatic calorimetry | 66.18 | 47.31
180 K, Crystal, Vacuum adiabatic calorimetry | 68.9 | 47.69
190 K, Crystal, Vacuum adiabatic calorimetry | 71.49 | 48
200 K, Crystal, Vacuum adiabatic calorimetry | 73.95 | 48.28
210 K, Crystal, Vacuum adiabatic calorimetry | 76.32 | 48.51
220 K, Crystal, Vacuum adiabatic calorimetry | 78.58 | 48.73
230 K, Crystal, Vacuum adiabatic calorimetry | 80.75 | 48.93
240 K, Crystal, Vacuum adiabatic calorimetry | 82.84 | 49.12
250 K, Crystal, Vacuum adiabatic calorimetry | 84.84 | 49.3
260 K, Crystal, Vacuum adiabatic calorimetry | 86.78 | 49.48
270 K, Crystal, Vacuum adiabatic calorimetry | 88.65 | 49.66
280 K, Crystal, Vacuum adiabatic calorimetry | 90.46 | 49.84
290 K, Crystal, Vacuum adiabatic calorimetry | 92.21 | 50.03
298.15 K, Crystal, Drop calorimetry | 93.6 | 50.19
298.15 K, Crystal, Vacuum adiabatic calorimetry | 93.6 | 50.19
300 K, Crystal, Drop calorimetry | 93.91 | 50.23
300 K, Crystal, Vacuum adiabatic calorimetry | 93.91 | 50.22
310 K, Crystal, Vacuum adiabatic calorimetry | 95.56 | 50.42
320 K, Crystal, Vacuum adiabatic calorimetry | 97.17 | 50.63
330 K, Crystal, Vacuum adiabatic calorimetry | 98.73 | 50.86
340 K, Crystal, Vacuum adiabatic calorimetry | 100.25 | 51.09
350 K, Crystal, Drop calorimetry | 101.76 | 51.72
350 K, Crystal, Vacuum adiabatic calorimetry | 101.74 | 51.33
400 K, Crystal, Drop calorimetry | 108.79 | 53.82
450 K, Crystal, Drop calorimetry | 115.27 | 56.28
500 K, Crystal, Drop calorimetry | 121.34 | 58.95
550 K, Crystal, Drop calorimetry | 127.09 | 61.78
600 K, Crystal, Drop calorimetry | 132.59 | 64.69
650 K, Crystal, Drop calorimetry | 137.88 | 67.68
700 K, Crystal, Drop calorimetry | 143.01 | 70.72
750 K, Crystal, Drop calorimetry | 148 | 73.8
800 K, Crystal, Drop calorimetry | 152.86 | 76.9
850 K, Crystal, Drop calorimetry | 157.61 | 80.02
900 K, Crystal, Drop calorimetry | 162.28 | 83.17
950 K, Crystal, Drop calorimetry | 166.86 | 86.32
973 K, Crystal, Drop calorimetry | 168.94 | 87.78
973 K, Liquid, Drop calorimetry | 191.65 | 70.56
1000 K, Liquid, Drop calorimetry | 193.58 | 70.56
1050 K, Liquid, Drop calorimetry | 197.03 | 70.56
1100 K, Liquid, Drop calorimetry | 200.31 | 70.56
1150 K, Liquid, Drop calorimetry | 203.44 | 70.56
1200 K, Liquid, Drop calorimetry | 206.45 | 70.56
1250 K, Liquid, Drop calorimetry | 209.33 | 70.56
1300 K, Liquid, Drop calorimetry | 212.1 | 70.56
1350 K, Liquid, Drop calorimetry | 214.76 | 70.56
1400 K, Liquid, Drop calorimetry | 217.32 | 70.56

Settings | Normal melting temperature [°C]
[2], Crystal, DTA | 699.6
